Reference: PubChem BioAssay AID2060489 (Molecular Pharmacology Branch, DTP, NCI, 2025)

Test system: 922993-354-T-J3-PDC complex spheroids, viability
Test: Anticancer human tumor 922993-354-T-J3-PDC patient-derived endometrial carcinoma cell line growth inhibition [GQUAD]
Settings: for IC50: curve of first compound; for viability, T/C: stronger effect = lower value
From the text: DNA G-quadruplex Stabilizer Agents in Combinations in Complex Spheroids
A high-throughput screen of multi-cell type tumor spheroids was designed to identify active combinations of DNA G-quadruplex stabilizer agents and targeted small molecules. Complex spheroids include a stromal component modeled by human endothelial cells (HUVEC) and fibroblasts modeled by human mesenchymal stem cells (MSCs). The concentration ranges selected for each drug and investigational agent were based upon clinically achievable concentrations if the clinical Cmax of the agent was known.
Compounds. The drugs and investigational agents: pidnarulex (CX-5461; NSC782164), APTO-253 (NSC789042), BRACO-19 (NSC847499), peposertib (NSC802822), ceralasertib (NSC780249), elimusertib (NSC800525), camonsertib (NSC841442), AZD-1390 (NSC803789), olaparib (NSC753686), talazoparib (NSC767125), ART-558 (NSC835418), sotorasib (NSC818433), MRTX-1133 (NSC836407), SN-38 (NSC673596), topotecan (NSC609699), etoposide (NSC141540), doxorubicin (NSC123127), gemcitabine (NSC613327), 5-fluorouracil (NSC19893), paclitaxel (NSC125973), vemurafenib (NSC761431), panobinostat (NSC761190), R-306465 (JNJ-16241199; NSC773264), adavosertib (NSC754352), TP-3654 (NSC805149), carboplatin (NSC241240), KSQ-4279 (NSC840948), and staurosporine (NSC755774) were obtained from the National Cancer Institute (NCI) Developmental Therapeutics Program Chemical Repository (34). The FDA-approved anticancer drug set is available from the NCI Developmental Therapeutics Program. […] The stock solutions were prepared in dimethyl sulfoxide (DMSO, Sigma-Aldrich, St. Louis, MO, cat. D2650) at 800-fold the tested concentration and stored at -70 degrees C prior to their use. All drugs and investigational agents were tested over a range starting from a high concentration at or near the clinical Cmax and decreasing in half-log increments. If the clinical Cmax for an agent had not been determined, the highest concentration tested was 10 microM.
2.3 Cell Culture. All cells were maintained in an incubator at 37 degrees C and 5% CO2 with 95% humidity. The PDC lines were cultured according to standard operating procedures established by the NCI PDMR. All PDCs were thawed and cultured in Matrigel-coated flasks prepared with a working solution of 1X Ham's F-12 nutrient mix, without supplementation (Invitrogen, cat. 11765054), 100 U/mL penicillin-streptomycin (Invitrogen, cat. 15140122), and 2.5% Matrigel (Corning Inc., cat. 354248) for the first three passages. The 857933-349-R-J2-PDC line was cultured in 6C/Colon 1B media, which includes advanced DMEM/F-12 (Thermo Fisher Scientific, cat. 12634028), 10 mM HEPES (Thermo Fisher Scientific, cat. 15630080), 1X GlutaMAX supplement (Thermo Fisher Scientific, cat. 35050061), 0.1 mg/mL primocin (InvivoGen, cat. ant-pm-2), 10% defined fetal bovine serum, heat inactivated (HyClone Laboratories Inc., cat. SH30070.03HI), 50% L-WRN conditioned media (ATCC, cat. CRL-3276), 1.25 mM N-Acetyl-L-cysteine (Sigma-Aldrich, cat. A9165), 10 mM nicotinamide (Sigma-Aldrich, cat. N0636), 1X B-27 supplement (Thermo Fisher Scientific, cat. 17504044), 1X N-2 supplement (Thermo Fisher Scientific, cat. 17502048), 10 microM Y-27632 dihydrochloride (Tocris Bioscience, cat. 1254), and 50 ng/mL human EGF recombinant protein (Thermo Fisher Scientific, cat. PHG0311). The 485176-168-R4-J1-PDC line was cultured in Panc media, which includes all 6C/Colon 1B media components plus 100 ng/mL human FGF-10 (Thermo Fisher Scientific, cat. 100-26), 500 nM SB-431542 (Selleckchem, cat. S1067), and gastrin (Tocris, cat. 3006).
[…]

[1] = second compound 0.0316 µM, first compound 0.0316 µM
[2] = second compound 0.0316 µM, first compound 0.316 µM
[3] = second compound 0.1 µM, first compound 0.0316 µM
[4] = second compound 0.1 µM, first compound 0.316 µM
[5] = second compound 0.316 µM, first compound 0.0316 µM
[6] = second compound 0.316 µM, first compound 0.316 µM
[7] = second compound 1 µM, first compound 0.0316 µM
[8] = second compound 1 µM, first compound 0.316 µM
[9] = second compound 3.16 µM, first compound 0.0316 µM
[10] = second compound 3.16 µM, first compound 0.316 µM
[11] = second compound 10 µM, first compound 0.0316 µM
[12] = second compound 10 µM, first compound 0.316 µM
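Note: spheroids exposed to compounds for seven days.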
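Throughout, for viability, T/C: 100% = DMSO vehicle control viability.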

**Q.** For CC1COCCN1c1cc(C2(O)CC3CCC(C2)O3)c2cnn(-c3ccn[nH]3)c2n1 (centres undefined) + CN(C)c1ccc(Nc2c3ccc(NC(=O)CCN4CCCC4)cc3nc3cc(NC(=O)CCN4CCCC4)ccc23)cc1, which IC50 (second compound 0.0316 µM) is on record?
**A.** 456 nM

**Q.** What about the IC50 (second compound 0.1 µM) of the same compound?
**A.** 545 nM

**Q.** And the IC50 (second compound 0.316 µM)?
**A.** 483 nM

**Q.** And the IC50 (second compound 1 µM)?
**A.** 784 nM

**Q.** What about the IC50 (second compound 3.16 µM) of the same compound?
**A.** 520 nM

**Q.** What about the IC50 (second compound 10 µM) of the same compound?
**A.** 906 nM

**Q.** What about the viability, T/C [1] of the same compound?
**A.** 124%

**Q.** And the viability, T/C (second compound 0.0316 µM, first compound 0.1 µM)?
**A.** 78.8%

**Q.** What about the viability, T/C [2] of the same compound?
**A.** 67%

**Q.** What about the viability, T/C (second compound 0.0316 µM, first compound 1 µM) of the same compound?
**A.** 29.4%

**Q.** What about the viability, T/C (second compound 0.0316 µM, first compound 3.16 µM) of the same compound?
**A.** 23.3%

**Q.** What about the viability, T/C (second compound 0.0316 µM, first compound 10 µM) of the same compound?
**A.** 18.4%

**Q.** What about the viability, T/C [3] of the same compound?
**A.** 82.8%

**Q.** What about the viability, T/C (second compound 0.1 µM, first compound 0.1 µM) of the same compound?
**A.** 82.2%

**Q.** And the viability, T/C [4]?
**A.** 68.2%

**Q.** And the viability, T/C (second compound 0.1 µM, first compound 1 µM)?
**A.** 29.8%

**Q.** And the viability, T/C (second compound 0.1 µM, first compound 3.16 µM)?
**A.** 21.3%

**Q.** And the viability, T/C (second compound 0.1 µM, first compound 10 µM)?
**A.** 22%

**Q.** And the viability, T/C [5]?
**A.** 112%

**Q.** What about the viability, T/C (second compound 0.316 µM, first compound 0.1 µM) of the same compound?
**A.** 86.1%

**Q.** What about the viability, T/C [6] of the same compound?
**A.** 66.4%

**Q.** And the viability, T/C (second compound 0.316 µM, first compound 1 µM)?
**A.** 27.3%

**Q.** And the viability, T/C (second compound 0.316 µM, first compound 3.16 µM)?
**A.** 22.1%

**Q.** What about the viability, T/C (second compound 0.316 µM, first compound 10 µM) of the same compound?
**A.** 19.7%

**Q.** What about the viability, T/C [7] of the same compound?
**A.** 98.6%

**Q.** And the viability, T/C (second compound 1 µM, first compound 0.1 µM)?
**A.** 102%

**Q.** And the viability, T/C [8]?
**A.** 70.5%

**Q.** And the viability, T/C (second compound 1 µM, first compound 1 µM)?
**A.** 47.3%

**Q.** What about the viability, T/C (second compound 1 µM, first compound 3.16 µM) of the same compound?
**A.** 20.2%

**Q.** What about the viability, T/C (second compound 1 µM, first compound 10 µM) of the same compound?
**A.** 19.7%

**Q.** And the viability, T/C [9]?
**A.** 127%

**Q.** What about the viability, T/C (second compound 3.16 µM, first compound 0.1 µM) of the same compound?
**A.** 79.7%

**Q.** What about the viability, T/C [10] of the same compound?
**A.** 65.5%

**Q.** And the viability, T/C (second compound 3.16 µM, first compound 1 µM)?
**A.** 39.4%

**Q.** And the viability, T/C (second compound 3.16 µM, first compound 3.16 µM)?
**A.** 21.5%

**Q.** And the viability, T/C (second compound 3.16 µM, first compound 10 µM)?
**A.** 25.4%

**Q.** And the viability, T/C [11]?
**A.** 115%

**Q.** What about the viability, T/C (second compound 10 µM, first compound 0.1 µM) of the same compound?
**A.** 113%

**Q.** What about the viability, T/C [12] of the same compound?
**A.** 86.4%

**Q.** And the viability, T/C (second compound 10 µM, first compound 1 µM)?
**A.** 48.8%

**Q.** And the viability, T/C (second compound 10 µM, first compound 3.16 µM)?
**A.** 21.7%

**Q.** What about the viability, T/C (second compound 10 µM, first compound 10 µM) of the same compound?
**A.** 25.2%

**Q.** Cn1ncnc1[C@H]1c2n[nH]c(=O)c3cc(F)cc(c23)N[C@@H]1c1ccc(F)cc1 + Cc1[nH]c2ccc(F)cc2c1-c1nc2c3cccnc3c3ncccc3c2[nH]1 was tested. Which IC50 (second compound 0.0316 µM) did it give?
**A.** > 316 nM

**Q.** What about the IC50 (second compound 0.1 µM) of the same compound?
**A.** > 316 nM

**Q.** And the IC50 (second compound 0.316 µM)?
**A.** > 316 nM

**Q.** What about the IC50 (second compound 1 µM) of the same compound?
**A.** > 316 nM

**Q.** And the IC50 (second compound 3.16 µM)?
**A.** > 316 nM

**Q.** And the IC50 (second compound 10 µM)?
**A.** > 316 nM

**Q.** And the viability, T/C (second compound 0.0316 µM, first compound 0.000999 µM)?
**A.** 102%

**Q.** And the viability, T/C (second compound 0.0316 µM, first compound 0.00316 µM)?
**A.** 100%

**Q.** What about the viability, T/C (second compound 0.0316 µM, first compound 0.00999 µM) of the same compound?
**A.** 83.8%

**Q.** And the viability, T/C [1]?
**A.** 88%

**Q.** What about the viability, T/C (second compound 0.0316 µM, first compound 0.0999 µM) of the same compound?
**A.** 85%

**Q.** And the viability, T/C [2]?
**A.** 61.5%

**Q.** And the viability, T/C (second compound 0.1 µM, first compound 0.000999 µM)?
**A.** 92.4%

**Q.** And the viability, T/C (second compound 0.1 µM, first compound 0.00316 µM)?
**A.** 85.4%

**Q.** And the viability, T/C (second compound 0.1 µM, first compound 0.00999 µM)?
**A.** 80.8%

**Q.** What about the viability, T/C [3] of the same compound?
**A.** 97.5%

**Q.** What about the viability, T/C (second compound 0.1 µM, first compound 0.0999 µM) of the same compound?
**A.** 80.1%

**Q.** And the viability, T/C [4]?
**A.** 54.1%

**Q.** What about the viability, T/C (second compound 0.316 µM, first compound 0.000999 µM) of the same compound?
**A.** 100%

**Q.** And the viability, T/C (second compound 0.316 µM, first compound 0.00316 µM)?
**A.** 98.6%

**Q.** What about the viability, T/C (second compound 0.316 µM, first compound 0.00999 µM) of the same compound?
**A.** 108%

**Q.** And the viability, T/C [5]?
**A.** 111%

**Q.** And the viability, T/C (second compound 0.316 µM, first compound 0.0999 µM)?
**A.** 122%

**Q.** What about the viability, T/C [6] of the same compound?
**A.** 64.9%

**Q.** And the viability, T/C (second compound 1 µM, first compound 0.000999 µM)?
**A.** 110%

**Q.** What about the viability, T/C (second compound 1 µM, first compound 0.00316 µM) of the same compound?
**A.** 82.8%

**Q.** What about the viability, T/C (second compound 1 µM, first compound 0.00999 µM) of the same compound?
**A.** 100%

**Q.** What about the viability, T/C [7] of the same compound?
**A.** 97.1%

**Q.** And the viability, T/C (second compound 1 µM, first compound 0.0999 µM)?
**A.** 93.3%

**Q.** And the viability, T/C [8]?
**A.** 69.6%

**Q.** And the viability, T/C (second compound 3.16 µM, first compound 0.000999 µM)?
**A.** 118%

**Q.** What about the viability, T/C (second compound 3.16 µM, first compound 0.00316 µM) of the same compound?
**A.** 92.6%

**Q.** What about the viability, T/C (second compound 3.16 µM, first compound 0.00999 µM) of the same compound?
**A.** 106%

**Q.** What about the viability, T/C [9] of the same compound?
**A.** 84.2%

**Q.** What about the viability, T/C (second compound 3.16 µM, first compound 0.0999 µM) of the same compound?
**A.** 94.9%

**Q.** And the viability, T/C [10]?
**A.** 70.6%

**Q.** And the viability, T/C (second compound 10 µM, first compound 0.000999 µM)?
**A.** 111%

**Q.** And the viability, T/C (second compound 10 µM, first compound 0.00316 µM)?
**A.** 93%

**Q.** And the viability, T/C (second compound 10 µM, first compound 0.00999 µM)?
**A.** 119%

**Q.** What about the viability, T/C [11] of the same compound?
**A.** 112%

**Q.** And the viability, T/C (second compound 10 µM, first compound 0.0999 µM)?
**A.** 75%

**Q.** And the viability, T/C [12]?
**A.** 81.9%
